# In PubChem BioAssay (NCI):
#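 Where inhibition never reached the appropriate level, the endpoint shown equals the highest concentration tested. Otherwise, values were interpolated linearly from a five-concentration, 48-hour dose response in 96-well plates. GI50 marks 50% less growth. Definition used: TGI = concentration required for complete inhibition of growth.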
# What was measured:
# Test in all cases: growth of human tumour cells (NCI), 48 h
# A498 renal = system: A498 renal
# A549 NSCLC = system: A549 NSCLC
# CCRF-CEM leukemia = system: CCRF-CEM leukemia
# DU-145 prostate = system: DU-145 prostate
# HOP-92 NSCLC = system: HOP-92 NSCLC
# NCI/ADR-RES ovarian = system: NCI/ADR-RES ovarian
# SF-295 CNS = system: SF-295 CNS
# SK-MEL-5 melanoma = system: SK-MEL-5 melanoma
# KM20L2 colon = system: KM20L2 colon
# LXFL 529 NSCLC = system: LXFL 529 NSCLC
SMILES,GI50 (A498 renal) [µM],TGI (A498 renal) [µM],GI50 (A549 NSCLC) [µM],TGI (A549 NSCLC) [µM],GI50 (CCRF-CEM leukemia) [µM],TGI (CCRF-CEM leukemia) [µM],GI50 (DU-145 prostate) [µM],TGI (DU-145 prostate) [µM],GI50 (HOP-92 NSCLC) [µM],TGI (HOP-92 NSCLC) [µM],GI50 (NCI/ADR-RES ovarian) [µM],TGI (NCI/ADR-RES ovarian) [µM],GI50 (SF-295 CNS) [µM],TGI (SF-295 CNS) [µM],GI50 (SK-MEL-5 melanoma) [µM],TGI (SK-MEL-5 melanoma) [µM],TGI (KM20L2 colon) [µM],GI50 (KM20L2 colon) [µM],TGI (LXFL 529 NSCLC) [µM]
Cc1ccc(-c2nc3nc(-c4ccc(Cl)cc4)nc(N4CCCNCC4)c3o2)cc1,1.88,3.56,1.91,3.83,0.7,2.91,1.95,3.59,1.36,2.91,2.02,3.95,1.82,3.39,1.82,3.33,,,
C=C1C(=O)O[C@H]2[C@H]1CC/C(COC(=O)NCCc1c[nH]c3ccccc13)=C\CC[C@@]1(C)O[C@@H]21,8.19,21.2,10.7,25.4,0.362,3.57,1.19,2.68,1.27,3.07,2.5,11.8,9.68,21.4,2.44,5.95,,,
C/C(=N\[N+](C)(C)C)C(c1ccccc1)C1(c2ccccc2)C(c2ccccc2)=C1c1ccccc1 (centres undefined),,> 100,,> 100,,> 100,,,,> 100,,,,> 100,,> 100,> 100,,
O=C(/C=C/c1ccc2c(c1)OCO2)c1ccccc1,12.4,25.4,18.7,49,19.1,81.2,10.2,22.1,15.4,41.3,20.6,62.3,11.5,28.8,15.6,29.4,,,
COc1cc2c3c(n(CCCn4ccnc4)c(=O)c2cc1OC)-c1ccccc1C3=O,0.0449,0.292,< 0.0337,0.413,< 0.01,,< 0.0209,,0.0343,3,0.223,1.86,< 0.01,0.218,< 0.0333,0.0861,,,
CCOC(=O)c1ccc(C(O)CC(=O)OC(C)(C)C)[nH]1 (centres undefined),23.7,> 100,32.1,> 100,29.6,88,59.7,> 100,17.9,55.8,41,> 100,29.7,63.5,27.3,89,,,
C[C@]12CC[C@H]3[C@@H](CC=C4C[C@@H](O)CC[C@@]43C)[C@@H]1C/C(=C\c1cccc(OCCCn3ccnc3)c1)[C@@H]2O,13.4,26.8,12.9,28.5,13,68.7,14.2,28.3,8.4,25.7,20.4,99.7,6.8,26.4,6.26,20.4,,,
Fc1ccc(Nc2ccc3cc(OCCCN4CCOCC4)ccc3n2)cc1F,2.21,7.64,5.36,> 100,7.93,> 100,6.85,> 100,2.63,7.9,4.45,> 100,1.89,4.3,1.75,3.49,,,
CC1(C)CC2=NOS3=C2C(=NO3)C1c1ccccn1 (centres undefined),,> 100,,> 100,,78.4,,> 100,,> 100,,> 100,,> 100,,34.8,,,
CC(=O)[CH-]C(C)=O.CC(=O)[CH-]C(C)=O.CC(=O)[CH-]C(C)=O.[Cl-].[Hf+4],> 100,> 100,> 100,> 100,> 100,> 100,,,> 100,> 100,,,> 100,> 100,,,> 100,> 100,
CCOC(=O)CCc1c(C)c2ccc(O)cc2oc1=O,,> 100,,> 100,,> 100,,> 100,,> 100,,> 100,,> 100,,> 100,,,
O=C(CCc1ccc(O)c(O)c1)c1ccc(O)c(O)c1O,,> 100,,> 100,,47.3,,37.2,,68.4,,> 100,,36.7,,36.3,,,
O=C(Nc1cccc(-c2nc3ccccc3[nH]2)c1)c1cccc(NC(=O)c2ccco2)c1,4.33,18.3,1.88,3.95,3.99,16.1,1.76,3.15,2.63,5.89,7.92,66,1.92,4.41,1.89,4.1,,,
O=[N+]([O-])c1ccccc1/C=C/C=C1c2ccccc2-c2ccccc21,> 100,> 100,> 100,> 100,> 100,> 100,> 100,> 100,> 100,> 100,> 100,> 100,> 100,> 100,> 100,> 100,,,
O=C(Nc1ccc(N=Nc2ccccc2)cc1)Sc1ccccc1C(=O)O,,> 100,,> 100,,,,,,,,,,> 100,,,> 100,,> 100
OCC1OC(O)C(N=Cc2ccc3c(c2)OCO3)C(O)C1O (centres undefined),,> 100,,> 100,,> 40.1,,> 100,,> 100,,> 100,,> 100,,> 100,,,
O=C1CN2CCC1C/C2=C\c1ccnc2c(Cl)cccc12 (centres undefined),69.8,> 100,> 100,> 100,36.5,> 100,> 100,> 100,37,> 100,39.2,> 100,46.5,> 100,31,> 100,,,
